The text below walks through data of the supplement of paper PMC10307832.

Each structure is given as a SMILES string.

One experiment concerns NCI-H23. The experiment can be described thus: relative viability (nuclei count vs DMSO), 5 days (fraction); higher = more cells survive. Conditions: first compound 0.8 µM. The method in brief:
(§1)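 Values are medians from duplicate plates. Each reflects relative viability, defined as the nuclei count of treated wells over that of vehicle wells. Lung cancer cell lines in 1536-well plates were pin-tool dosed one day after seeding with one drug alone or with a fixed anchor-drug dose plus five library-drug doses (not always all listed) in √10 steps, then fixed, stained and imaged at 4× after 5 days.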
As to `Nc1cccc2c1CN(C1CCC(=O)NC1=O)C2=O` (stereo not given) [Lenalidomide] + COc1cccc2cc(-c3nc([C@H]4CC[C@H](C(=O)O)CC4)n4ncnc(N)c34)[nH]c12 [OSI-027] (partner 0.5 µM), the relative viability stood at 0.499.

Staying with this experiment, now noted: first compound 2.53 µM.
In turn, `Nc1cccc2c1CN(C1CCC(=O)NC1=O)C2=O` (stereo not given) [Lenalidomide] + N=C(N)NC(=N)NCCc1ccccc1 [Phenformin] (partner 250 µM) showed a relative viability of 0.889.

As for `Nc1cccc2c1CN(C1CCC(=O)NC1=O)C2=O` (stereo not given) [Lenalidomide] + Cc1cc(Nc2cc(N3CCN(C)CC3)nc(Sc3ccc(NC(=O)C4CC4)cc3)n2)n[nH]1 [Tozasertib] (partner 0.1 µM), the relative viability came out at 0.723.

In turn, `Nc1cccc2c1CN(C1CCC(=O)NC1=O)C2=O` (stereo not given) [Lenalidomide] + CC(=O)c1c(C)c2cnc(Nc3ccc(N4CCNCC4)cn3)nc2n(C2CCCC2)c1=O [Palbociclib] (partner 0.5 µM) yielded a relative viability of 0.517.

Molecule `Nc1cccc2c1CN(C1CCC(=O)NC1=O)C2=O` (stereo not given) [Lenalidomide] + O=C(CCCCCCC(=O)Nc1ccccc1)NO [Vorinostat] (partner 1 µM) yielded a relative viability of 0.747.

As to `Nc1cccc2c1CN(C1CCC(=O)NC1=O)C2=O` (stereo not given) [Lenalidomide] + COc1cccc2cc(-c3nc([C@H]4CC[C@H](C(=O)O)CC4)n4ncnc(N)c34)[nH]c12 [OSI-027] (partner 0.5 µM), the relative viability worked out at 0.742.

The same experiment, now with this note: first compound 8 µM.
The molecule `Nc1cccc2c1CN(C1CCC(=O)NC1=O)C2=O` (stereo not given) [Lenalidomide] + N=C(N)NC(=N)NCCc1ccccc1 [Phenformin] (partner 250 µM) came in with a relative viability of 0.729.

Turning to `Nc1cccc2c1CN(C1CCC(=O)NC1=O)C2=O` (stereo not given) [Lenalidomide] + Cc1cc(Nc2cc(N3CCN(C)CC3)nc(Sc3ccc(NC(=O)C4CC4)cc3)n2)n[nH]1 [Tozasertib] (partner 0.1 µM), the relative viability was determined as 0.405.

The molecule `Nc1cccc2c1CN(C1CCC(=O)NC1=O)C2=O` (stereo not given) [Lenalidomide] + CC(=O)c1c(C)c2cnc(Nc3ccc(N4CCNCC4)cn3)nc2n(C2CCCC2)c1=O [Palbociclib] (partner 0.5 µM) came in with a relative viability of 0.442.

Molecule `Nc1cccc2c1CN(C1CCC(=O)NC1=O)C2=O` (stereo not given) [Lenalidomide] + O=C(CCCCCCC(=O)Nc1ccccc1)NO [Vorinostat] (partner 1 µM) yielded a relative viability of 0.407.

Molecule `Nc1cccc2c1CN(C1CCC(=O)NC1=O)C2=O` (stereo not given) [Lenalidomide] + COc1cccc2cc(-c3nc([C@H]4CC[C@H](C(=O)O)CC4)n4ncnc(N)c34)[nH]c12 [OSI-027] (partner 0.5 µM) returned a relative viability of 0.502.

The next experiment relates to NCI-H727. The description is as above. The settings on record: first compound 0.253 µM. The method in brief:
as §1
In turn, `Nc1cccc2c1CN(C1CCC(=O)NC1=O)C2=O` (stereo not given) [Lenalidomide] + N=C(N)NC(=N)NCCc1ccccc1 [Phenformin] (partner 250 µM) gave a relative viability of 0.613.

The molecule `Nc1cccc2c1CN(C1CCC(=O)NC1=O)C2=O` (stereo not given) [Lenalidomide] + Cc1cc(Nc2cc(N3CCN(C)CC3)nc(Sc3ccc(NC(=O)C4CC4)cc3)n2)n[nH]1 [Tozasertib] (partner 0.1 µM) yielded a relative viability of 0.615.

In the case of `Nc1cccc2c1CN(C1CCC(=O)NC1=O)C2=O` (stereo not given) [Lenalidomide] + CC(=O)c1c(C)c2cnc(Nc3ccc(N4CCNCC4)cn3)nc2n(C2CCCC2)c1=O [Palbociclib] (partner 0.5 µM), the relative viability turned out to be 0.697.

`Nc1cccc2c1CN(C1CCC(=O)NC1=O)C2=O` (stereo not given) [Lenalidomide] + O=C(CCCCCCC(=O)Nc1ccccc1)NO [Vorinostat] (partner 1 µM) came in with a relative viability of 1.26.

The molecule `Nc1cccc2c1CN(C1CCC(=O)NC1=O)C2=O` (stereo not given) [Lenalidomide] + COc1cccc2cc(-c3nc([C@H]4CC[C@H](C(=O)O)CC4)n4ncnc(N)c34)[nH]c12 [OSI-027] (partner 0.5 µM) had a relative viability of 0.523.

Still in this experiment, the particulars now being: first compound 0.8 µM.
In turn, `Nc1cccc2c1CN(C1CCC(=O)NC1=O)C2=O` (stereo not given) [Lenalidomide] + N=C(N)NC(=N)NCCc1ccccc1 [Phenformin] (partner 250 µM) returned a relative viability of 0.53.

Molecule `Nc1cccc2c1CN(C1CCC(=O)NC1=O)C2=O` (stereo not given) [Lenalidomide] + Cc1cc(Nc2cc(N3CCN(C)CC3)nc(Sc3ccc(NC(=O)C4CC4)cc3)n2)n[nH]1 [Tozasertib] (partner 0.1 µM) showed a relative viability of 0.585.

Regarding `Nc1cccc2c1CN(C1CCC(=O)NC1=O)C2=O` (stereo not given) [Lenalidomide] + CC(=O)c1c(C)c2cnc(Nc3ccc(N4CCNCC4)cn3)nc2n(C2CCCC2)c1=O [Palbociclib] (partner 0.5 µM), the relative viability amounted to 0.684.

`Nc1cccc2c1CN(C1CCC(=O)NC1=O)C2=O` (stereo not given) [Lenalidomide] + O=C(CCCCCCC(=O)Nc1ccccc1)NO [Vorinostat] (partner 1 µM) registered a relative viability of 1.04.

Take `Nc1cccc2c1CN(C1CCC(=O)NC1=O)C2=O` (stereo not given) [Lenalidomide] + COc1cccc2cc(-c3nc([C@H]4CC[C@H](C(=O)O)CC4)n4ncnc(N)c34)[nH]c12 [OSI-027] (partner 0.5 µM): the relative viability is 0.446.

The same experiment, now with this note: first compound 2.53 µM.
`Nc1cccc2c1CN(C1CCC(=O)NC1=O)C2=O` (stereo not given) [Lenalidomide] + N=C(N)NC(=N)NCCc1ccccc1 [Phenformin] (partner 250 µM) registered a relative viability of 0.505.

Take `Nc1cccc2c1CN(C1CCC(=O)NC1=O)C2=O` (stereo not given) [Lenalidomide] + Cc1cc(Nc2cc(N3CCN(C)CC3)nc(Sc3ccc(NC(=O)C4CC4)cc3)n2)n[nH]1 [Tozasertib] (partner 0.1 µM): the relative viability stood at 0.56.

With `Nc1cccc2c1CN(C1CCC(=O)NC1=O)C2=O` (stereo not given) [Lenalidomide] + CC(=O)c1c(C)c2cnc(Nc3ccc(N4CCNCC4)cn3)nc2n(C2CCCC2)c1=O [Palbociclib] (partner 0.5 µM), the relative viability was found to be 0.64.

Molecule `Nc1cccc2c1CN(C1CCC(=O)NC1=O)C2=O` (stereo not given) [Lenalidomide] + O=C(CCCCCCC(=O)Nc1ccccc1)NO [Vorinostat] (partner 1 µM) displayed a relative viability of 1.32.

Take `Nc1cccc2c1CN(C1CCC(=O)NC1=O)C2=O` (stereo not given) [Lenalidomide] + COc1cccc2cc(-c3nc([C@H]4CC[C@H](C(=O)O)CC4)n4ncnc(N)c34)[nH]c12 [OSI-027] (partner 0.5 µM): the relative viability turned out to be 0.609.

Staying with this experiment, now noted: first compound 8 µM.
In the case of `Nc1cccc2c1CN(C1CCC(=O)NC1=O)C2=O` (stereo not given) [Lenalidomide] + N=C(N)NC(=N)NCCc1ccccc1 [Phenformin] (partner 250 µM), the relative viability was determined as 0.423.

With `Nc1cccc2c1CN(C1CCC(=O)NC1=O)C2=O` (stereo not given) [Lenalidomide] + Cc1cc(Nc2cc(N3CCN(C)CC3)nc(Sc3ccc(NC(=O)C4CC4)cc3)n2)n[nH]1 [Tozasertib] (partner 0.1 µM), the relative viability amounted to 0.756.

Molecule `Nc1cccc2c1CN(C1CCC(=O)NC1=O)C2=O` (stereo not given) [Lenalidomide] + CC(=O)c1c(C)c2cnc(Nc3ccc(N4CCNCC4)cn3)nc2n(C2CCCC2)c1=O [Palbociclib] (partner 0.5 µM) showed a relative viability of 0.631.

`Nc1cccc2c1CN(C1CCC(=O)NC1=O)C2=O` (stereo not given) [Lenalidomide] + O=C(CCCCCCC(=O)Nc1ccccc1)NO [Vorinostat] (partner 1 µM) had a relative viability of 1.22.
